Assays:
[1] = system: Caco-2 cells; experiment: Poly (I:C) induced IL-8 production in differentiated Caco-2 cells (ELISA); type: cell-based, human
Description: In order to determine whether DHA has an effect on inducers of inflammation other than TNFα, stimulation of another Toll-like receptor was evaluated. Polyriboinosinic polyribocytidylic acid [poly(I:C)] is a synthetic double-stranded RNA that is used experimentally to model viral infections. It has recently been identified as one of the critical stimuli for toll like receptor 3 (TLR3). The effects of n-3 PUFA on viral induced inflammation in intestinal epithelia have not been reported.
Docosahexaenoic acid (DHA, 22:6 n-3) was used as n-3 PUFA and linoleic acid (LA, 18:2 n-6) as n-6 PUFA. Differentiated Caco-2 cells were pretreated with various doses of DHA or LA for 24 hours. The cells were then treated with poly (I: C) 50 ug/ml for another 24 hours. The culture medium was collected to measure the IL-8 production by ELISA. The first experiment determined the effect of Poly (I: C) on stimulation of IL-8, a major pro-inflammatory chemokine. Poly (I:C) increased IL-8 production by 10 fold.

[2] = system: myeloperoxidase (MPO); experiment: Intestinal myeloperoxidase activity in gastrostomy fed, LPS treated rats; type: in vivo, rat
Text: An approximate 6-fold elevation of intestinal myeloperoxidase (MPO) activity in the gastrostomy fed, LPS treated rats was decreased by GLN and Glu by 92% and 54%, respectively.

[3] = system: CINC peptide; experiment: CINC peptide in gastrostomy fed (pup-in-a-cup), LPS treated rat pups; type: in vivo; conditions: for decrease of intestinal CINC peptide: intestine
Text: Using the “pup-in-a-cup” rat model, protein deprivation and supplementation with GLN or GLU in the developing rat small intestine were examined. Four groups of 6-7 d old pups were fed via a gastrostomy tube providing 100% or 25% protein (relative to mother fed rats) rat milk substitute (RMS) with and without additional GLN or glutamate (GLU) for 6 d. Pups receiving the 100% protein RMS experienced better growth than the 3 groups of pups receiving the 25% protein RMS+/−GLN/GLU supplementation.
(§1) Cytokine induced neutrophil chemoattractant (CINC) is a rodent chemokine that performs neutrophil chemoattractant functions similar to IL-8 in the human. Large quantities of this proinflammatory mediator can be detrimental.
Intestinal CINC peptide in the LPS treated pups provided 100% and 25% protein was elevated about 13 fold compared to the mother reared pups. GLN and GlU decreased intestinal CINC peptide by 73 and 80%, respectively.

[4] = system: developing rat small intestine; experiment: Pup-in-a-cup rat model: growth, villus size and tight junction proteins under protein deprivation; type: in vivo; conditions: for villus height and area: 6-7 d old pups fed rat milk substitute for 6 d; for growth of pups: 6-7 d old pups fed rat milk substitute via gastrostomy tube for 6 d
Text: Using the “pup-in-a-cup” rat model, protein deprivation and supplementation with GLN or GLU in the developing rat small intestine were examined. Four groups of 6-7 d old pups were fed via a gastrostomy tube providing 100% or 25% protein (relative to mother fed rats) rat milk substitute (RMS) with and without additional GLN or glutamate (GLU) for 6 d. […] Villus size is a major component of absorptive capability. […] The tight junction proteins play an integral role in paracellular permeability of the intestinal barrier, and two of these, claudin and occludin were evaluated using Western blotting.

[5] = system: CINC mRNA; experiment: CINC mRNA in small intestine by RT-PCR, protein deprived LPS treated rat pups; type: in vivo; conditions: 25% protein-fed, densitometry
Description: as §1, with “detrimental. […] To clarify the effects of diets on the CINC mRNA in small intestine, RT-PCR was performed.” for “detrimental.”

[6] = system: IEC-6; experiment: Proliferation of rat intestinal crypt cells (IEC-6) in the absence of GLN; type: cell-based; conditions: GLN synthetase inhibited cells, all treatment doses
Description: Studies were conducted to evaluate whether glutamate, a mixture of nucleotide monophosphates, arginine, or glucosamine could support proliferation of rat intestinal crypt cells (IEC-6) in the absence of GLN.

[7] = system: H4 cells; experiment: TNFα-induced IL-8 production in H4 cells; type: cell-based, human; conditions: H4, 24 h pretreatment, TNF-α 1 μg/L for 24 h
Description: EPA and DHA were used as n-3 PUFA and linoleic acid (LA, 18:2 n-6) as n-6 PUFA. The H4 and Caco-2 cells were pretreated with different doses of EPA, DHA and LA separately and in different combinations for 24 hours. Then TNF-α (1 μg/L for H4, 50 μg/L for Caco-2 cells) was added to cell culture medium and the cells were incubated for another 24 hours. The lower dose used in the H4 cell line reflects their exquisite sensitivity to inflammatory stimuli.
The effects of different doses of fatty acids on TNFα-induced IL-8 production were evaluated and are seen in FIGS. 2A-B.

[8] = system: BBDP rats; experiment: Mortality due to diabetes in BBDP rats; type: in vivo, rat

Compound: CC/C=C\C/C=C\C/C=C\C/C=C\C/C=C\C/C=C\CCC(=O)O [DHA, docosahexaenoic acid]
- decrease of poly (I:C)-induced IL-8 production ([1]; 100 μM, 24 h pretreatment, poly (I:C) 50 ug/ml 24 h): 75%

Compound: NC(=O)CC[C@H](N)C(=O)O [GLN, glutamine]
- decrease of intestinal myeloperoxidase (MPO) activity [2]: 92%
- decrease of intestinal CINC peptide [3]: 73%
- plasma CINC peptide [3]: decreased plasma CINC peptide
- villus height and area [4]: did not differ
- growth of pups [4]: neither GLN nor GLU alone can rescue the effects of protein deprivation
- CINC mRNA expression in small intestine [5]: decreased CINC mRNA to a level similar to mother-fed animals

Compound: N[C@@H](CCC(=O)O)C(=O)O [Glu, glutamate]
- decrease of intestinal myeloperoxidase (MPO) activity [2]: 54%
- decrease of intestinal CINC peptide [3]: 80%
- plasma CINC peptide [3]: but not Glu decreased plasma CINC peptide
- villus height and area [4]: did not differ
- growth of pups [4]: neither GLN nor GLU alone can rescue the effects of protein deprivation
- proliferation [6]: decrease in proliferation compared with cells treated with GLN
- CINC mRNA expression in small intestine [5]: did not show the same effect as GLN

Compound: CCCCC/C=C\C/C=C\CCCCCCCC(=O)O [LA, linoleic acid]
- effect on TNF-α induced IL-8 production [7]: greater inflammatory effects on IL-8 production in H4 than in Caco-2 cells
- poly (I:C)-induced IL-8 production ([1]; doses of 50 and 100 μM, 24 h pretreatment): did not significantly reduce IL-8 production

Compound: CCCC(=O)[O-].[Na+] [NaB]
- mortality due to diabetes [8]: decrease mortality due to diabetes

Compound: N=C(N)NCCC[C@H](N)C(=O)O [arginine]
- proliferation [6]: decrease in proliferation compared with cells treated with GLN

Compound: N[C@H]1C(O)O[C@H](CO)[C@@H](O)[C@@H]1O (some centres unmarked) [glucosamine]
- proliferation [6]: decrease in proliferation compared with cells treated with GLN

Compound: Polyriboinosinic polyribocytidylic acid [Poly (I:C)]
- increase of IL-8 production ([1]; poly (I:C) 50 ug/ml, 24 hours): 10 fold

From US9107894B2, “Formulation to improve gastrointestinal function” (University of Florida Research Foundation, Inc., priority 2007, dated 2015)
